Test results as given in ChEMBL document CHEMBL4364241, “Developments in the anticancer activity of structurally modified curcumin: An up-to-date review” (Eur J Med Chem, 2019).

Columns and labels:
[1] = biological target: Tyrosine-protein kinase ABL1 (Homo sapiens, UniProt P00519); experiment: Inhibition of Wild type ABL (unknown origin)
[2] = biological target: Tyrosine-protein kinase ABL1 (Homo sapiens, UniProt P00519, T315I); experiment: Inhibition of ABL T315I mutant (unknown origin)
[3] = biological target: Tyrosine-protein kinase ABL1 (Homo sapiens, UniProt P00519, Q252H); experiment: Inhibition of ABL Q252H mutant (unknown origin)
[4] = biological target: Tyrosine-protein kinase ABL1 (Homo sapiens, UniProt P00519, Y253F); experiment: Inhibition of ABL Y253F mutant (unknown origin)
HeLa [5] = experiment: Cytotoxicity against human HeLa Cells; format: functional, cell-based
L02 [6] = experiment: Cytotoxicity against human LO2 Cells; format: functional, cell-based
K562 [7] = experiment: Antiproliferative activity against human K562 Cells; format: functional, cell-based
THP-1 = experiment: Cytotoxicity against human THP1 Cells; format: functional, cell-based
HepG2 [8] = experiment: Cytotoxicity against human HepG2 Cells; format: functional, cell-based
[9] = Antiproliferative activity against human K562/G01 cells; format: functional, cell-based
SK-OV-3 [10] = experiment: Cytotoxicity against human SKOV3 Cells after 24 hrs by MTT assay; format: functional, cell-based; conditions: SK-OV-3, 24 h
PC-3 [11] = experiment: Cytotoxicity against human PC3 cells; format: functional, cell-based
Bcap37 = experiment: Cytotoxicity against human Bcap37 cells; format: functional, cell-based
MGC-803 [12] = experiment: Cytotoxicity against human MGC803 cells; format: functional, cell-based
A549 [13] = experiment: Cytotoxicity against human A549 Cells after 24 hrs by MTT assay; format: functional, cell-based; conditions: A549, 24 h
BGC-823 [14] = experiment: Antiproliferative activity against human BGC823 cells after 24 hrs by MTT assay; format: functional, cell-based; conditions: BGC-823, 24 h
HSC-4 = experiment: Cytotoxicity against human HSC4 cells; format: functional, cell-based
AGS [15] = experiment: Cytotoxicity against human AGS Cells by MTT assay; format: functional, cell-based
DU-145 = experiment: Anticancer activity against human DU145 cells; format: functional, cell-based
HeLa [16] = experiment: Anticancer activity against human HeLa cells; format: functional, cell-based
NCI-H1299 = experiment: Cytotoxicity against human H1299 cells; format: functional, cell-based
HT-29 [17] = experiment: Cytotoxicity against human HT-29 Cells after 72 hrs by MTT assay; format: functional, cell-based; conditions: HT-29, 72 h
HL-60 = experiment: Cytotoxicity against human HL60 cells; format: functional, cell-based
SW480 = experiment: Cytotoxicity against human SW480 Cells after 24 to 48 hrs by MTT assay; format: functional, cell-based
MCF7 [18] = experiment: Induction of apoptosis in human MCF7 cells; format: functional, cell-based
U373 MG = experiment: Cytotoxicity against human U373MG Cells 48 hrs by MTS assay; format: functional, cell-based, U-373MG ATCC
[19] = Cytotoxicity against human GBM6 Cells 48 hrs by MTS assay; format: functional; conditions: GBM6, 48 h
[20] = Cytotoxicity against human GBM1 Cells 48 hrs by MTS assay; format: functional; conditions: GBM1, 48 h
SK-OV-3 [21] = experiment: Cytotoxicity against human SKOV3 Cells after 48 hrs by Cell Titer Blue assay; format: functional, cell-based; conditions: SK-OV-3, 48 h
HepG2 [22] = experiment: Cytotoxicity against human HepG2 Cells after 48 hrs by MTT assay; format: functional, cell-based; conditions: HepG2, 48 h
A549 [23] = experiment: Cytotoxicity against human A549 Cells after 24 to 48 hrs by MTT assay; format: functional, cell-based
NIH3T3 = experiment: Cytotoxicity against mouse 3T3 Cells after 48 hrs by MTT assay; format: functional, cell-based; conditions: NIH3T3, 48 h
SGC-7901 [24] = experiment: Antiproliferative activity against human SGC7901 cells after 24 hrs by MTT assay; format: functional, cell-based; conditions: SGC-7901, 24 h
MDA-MB-231 [25] = experiment: Anticancer activity against human MDA-MB-231 cells after 72 hrs by MTT assay; format: functional, cell-based; conditions: MDA-MB-231, 72 h
[26] = Cytotoxicity against mitoxantrone resistant […] cells expressing BCRP after 15 mins by fluorescence assay; format: functional, cell-based; conditions: Canis lupus familiaris, MDCK2, 0.25 h
HCT-116 [27] = experiment: Growth inhibition of human HCT116 cells relative to control; format: functional
MCF7 [28] = experiment: Cytotoxicity against human MCF7 Cells after 48 hrs by MTT assay; format: functional, cell-based; conditions: MCF7, 48 h
SW-620 = experiment: Cytotoxicity against human SW620 Cells; format: functional, cell-based
[29] = Cytotoxicity against human CCD-1059SK Cells after 48 hrs by MTS assay; format: functional
U-251 = experiment: Cytotoxicity against human U251MG cells after 48 hrs by MTS assay; format: functional, cell-based; conditions: U-251, 48 h
MGC-803 [30] = experiment: Antiproliferative activity against human MGC803 cells after 24 hrs by MTT assay; format: functional, cell-based; conditions: MGC-803, 24 h
RWPE-1 = experiment: Cytotoxicity against human RWPE1 cells; format: functional, cell-based
KBM5 = experiment: Growth inhibition of human KBM5 cells relative to control; format: functional
HSC-3 = experiment: Cytotoxicity against human HSC3 cells; format: functional, cell-based
[31] = Cytotoxicity against human GBM5 Cells 48 hrs by MTS assay; format: functional
L02 [32] = experiment: Cytotoxicity against human HL-7702 cells; format: functional, cell-based
CHO-K1 = experiment: Cytotoxicity against […] Cells after 72 hrs by MTT assay; format: functional, cell-based; conditions: Cricetulus griseus, CHO-K1, 72 h
HCT-116 [33] = experiment: Cytotoxicity against human HCT116 Cells; format: functional, cell-based
[34] = Cytotoxicity against human GBM2 Cells 48 hrs by MTS assay; format: functional; conditions: GBM2, 48 h
BXPC-3 = experiment: Cytotoxicity against human BxPC3 cells; format: functional, cell-based
SMMC-7721 = experiment: Anticancer activity against human SMMC7721 cells after 72 hrs by MTT assay; format: functional, cell-based; conditions: SMMC-7721, 72 h
PC-3 [35] = experiment: Anticancer activity against human PC3 cells; format: functional, cell-based
[36] = Cytotoxicity against human GBM3 Cells 48 hrs by MTS assay; format: functional; conditions: GBM3, 48 h
AGS [37] = experiment: Cytotoxicity against human AGS Cells; format: functional, cell-based
HEp-2 = experiment: Cytotoxicity against human Hep2 Cells; format: functional, cell-based
K562 [38] = experiment: Cytotoxicity against human K562 Cells after 24 to 48 hrs by MTT assay; format: functional, cell-based
BGC-823 [39] = experiment: Cytotoxicity against human BGC823 cells; format: functional, cell-based
A549 [40] = experiment: Cytotoxicity against human A549 Cells by MTT assay; format: functional, cell-based
Caco-2 = experiment: Cytotoxicity against human Caco2 Cells after 72 hrs by MTT assay; format: functional, cell-based; conditions: Caco-2, 72 h
[41] = Cytotoxicity against human LX2 Cells after 48 hrs by MTT assay; format: functional; conditions: LX-2, 48 h
MDA-MB-231 [42] = experiment: Cytotoxicity against human MDA-MB-231 cells; format: functional, cell-based
U-87 MG = experiment: Cytotoxicity against human U87MG Cells 48 hrs by MTS assay; format: functional, cell-based, U-87MG ATCC
[43] = Anticancer activity against human LX2 cells after 72 hrs by MTT assay; format: functional, cell-based; conditions: LX-2, 72 h
[44] = Cytotoxicity against human GBM4 Cells 48 hrs by MTS assay; format: functional
HSC-2 = experiment: Cytotoxicity against human HSC2 cells; format: functional, cell-based
MCF7 [45] = experiment: Cytotoxicity against human MCF7 cells; format: functional, cell-based
SGC-7901 [46] = experiment: Cytotoxicity against human SGC7901 cells; format: functional, cell-based
HT-29 [47] = experiment: Cytotoxicity against human HT-29 Cells; format: functional, cell-based
CT26 = experiment: Cytotoxicity against mouse CT26 cells; format: functional, cell-based
HepG2 [48] = experiment: Cytotoxicity against human HepG2 Cells after 72 hrs by MTT assay; format: functional, cell-based; conditions: HepG2, 72 h
GES1 = experiment: Cytotoxicity against human GES-1 cells; format: functional, cell-based
EA.hy 926 = experiment: Cytotoxicity against human EAhy926 Cells after 72 hrs by MTT assay; format: functional, cell-based; conditions: EA.hy 926, 72 h
MCF7 [49] = experiment: Cytotoxicity against human MCF7 Cells after 48 hrs by MTS assay; format: functional, cell-based; conditions: MCF7, 48 h
HepG2 [50] = experiment: Cytotoxicity against human HepG2 Cells by MTT/Trypan Blue Exclusion Assay; format: functional, cell-based

COc1cc(C=C(C(=O)/C=C/c2ccc(O)c(OC)c2)C(=O)/C=C/c2ccc(O)c(OC)c2)ccc1O
IC50 [1]: 83.3 nM
IC50 [2]: 67.3 nM
IC50 [3]: 185 nM
IC50 [4]: 79.8 nM

C/C(=C/C(=O)c1ccccc1)Nc1cccc(/C=C2\CN(C)C/C(=C\c3cccc(N/C(C)=C/C(=O)c4ccccc4)c3)C2=O)c1
IC50 (HeLa [5]): > 10 µM
IC50 (L02 [6]): 13.1 µM
IC50 (K562 [7]): 4800 nM
IC50 (THP-1): 1170 nM
IC50 (HepG2 [8]): 5.52 µM

COc1cc(/C=C/C(=O)C(=Cc2ccncc2)C(=O)/C=C/c2ccc(O)c(OC)c2)ccc1O
IC50 [9]: 600 nM
IC50 (K562 [7]): 1100 nM

COc1cc(/C=C/C2=NN(c3nc(/N=C4/CC[C@H]5[C@@H]6CC[C@H]7C[C@@H](OC(C)=O)CC[C@]7(C)[C@H]6CC[C@]45C)cc(=O)[nH]3)C(/C=C/c3cc(OC)cc(OC)c3)C2)cc(OC)c1 (some centres undefined)
IC50 (SK-OV-3 [10]): 2500 nM

Cc1ccc2ncnc(Oc3ccccc3/C=C/C(=O)/C=C/c3c(Cl)cccc3Cl)c2c1
IC50 (PC-3 [11]): 1.37 µM
IC50 (Bcap37): 4.98 µM
IC50 (MGC-803 [12]): 0.85 µM

COc1cc(/C=C/C(=O)CC(=O)/C=C/c2ccc(O)c(OC)c2)ccc1O [CURCUMIN]
IC50 (A549 [13]): 52.3 µM
IC50 (BGC-823 [14]): > 20 µM
IC50 (HSC-4): 7.1 µM
IC50 (AGS [15]): 20.8 µM
IC50 (DU-145): 31.7 µM
IC50 (HeLa [16]): 4.33 µM
IC50 (NCI-H1299): 18.9 µM
IC50 (HT-29 [17]): 23.4 µM
IC50 (HL-60): 6.3 µM
IC50 (SW480): 15 to 17 µM
IC50 (MCF7 [18]): 17.1 µM
IC50 (U373 MG): > 50 µM
IC50 [19]: > 50 µM
IC50 [20]: 39.6 µM
IC50 (SK-OV-3 [21]): 6.7 µM
IC50 (HepG2 [22]): 9.44 µM
IC50 (A549 [23]): 28 to 30 µM
IC50 (NIH3T3): 9.51 µM
IC50 (SGC-7901 [24]): > 20 µM
IC50 (MDA-MB-231 [25]): 11.5 µM
IC50 [26]: 32 µM
growth inhibition (GI) (HCT-116 [27]): 46.87%
IC50 (MCF7 [28]): 9.28 µM
IC50 (SW-620): > 50 µM
IC50 [29]: 133 µM
IC50 (U-251): 15.3 µM
IC50 (MGC-803 [30]): > 20 µM
IC50 (PC-3 [11]): 20 µM
IC50 (RWPE-1): 15.6 µM
growth inhibition (GI) (KBM5): 46%
IC50 (HSC-3): 11 µM
IC50 [31]: > 50 µM
IC50 (L02 [32]): 32.3 µM
IC50 (CHO-K1): 21.3 µM
IC50 (HCT-116 [33]): 5.51 to 20 µM
IC50 [34]: > 50 µM
IC50 (BXPC-3): 18.2 µM
IC50 (SMMC-7721): 12.6 µM
IC50 (PC-3 [35]): 20.9 µM
IC50 [36]: > 50 µM
IC50 (AGS [37]): 9.77 µM
IC50 (HEp-2): 21.4 µM
IC50 (K562 [38]): 36 to 38 µM
IC50 (BGC-823 [39]): 17.5 µM
IC50 (A549 [40]): 25.3 µM
IC50 (Caco-2): 28 µM
IC50 [41]: 9.14 µM
IC50 (HeLa [5]): 14 to 22.2 µM
IC50 (MDA-MB-231 [42]): 26.5 µM
IC50 (U-87 MG): 7.15 µM
IC50 [43]: 14 µM
IC50 [44]: > 50 µM
IC50 (HSC-2): 7.8 µM
IC50 (MCF7 [45]): 22.5 µM
IC50 (SGC-7901 [46]): 22.5 µM
IC50 (HT-29 [47]): 18.7 to 66.9 µM
IC50 (CT26): > 20 µM
IC50 (HepG2 [48]): 20.3 to 24.9 µM
IC50 (GES1): 29.1 µM
IC50 (MGC-803 [12]): 21.2 µM
IC50 (EA.hy 926): 20 µM
IC50 (MCF7 [49]): 68.2 µM
IC50 (HepG2 [8]): 36.8 µM

COc1cccc2c1C(=O)c1c(O)c3c(c(O)c1C2=O)C[C@@](O)(C(=O)CO)C[C@@H]3O[C@H]1C[C@H](N)[C@H](O)[C@H](C)O1 [DOXORUBICIN]
IC50 (HepG2 [50]): 14.7 µM
IC50 (HeLa [5]): 2.02 µM
IC50 (L02 [6]): 6.93 µM
IC50 (K562 [7]): 1420 nM
IC50 (THP-1): 300 nM
IC50 (HepG2 [8]): 0.57 µM
